Test results reported in US11124500B2, “Disubstituted pyrazole compounds” (Eli Lilly and Company, priority 2019, dated 2021).

Tests used:
[1] = administered for 6 weeks, subjects with NAFLD; cited from earlier work
human KHK-C = human KHK-C (Homo sapiens (Human), UniProt P50053); test: KHK enzyme activity assay, human KHK-C (F1P production, RapidFire MS); format: biochemical; settings: fructose 250 μM, ATP 150 μM; average ± SEM; read-out: hKHK-C IC50
Protocol: (§1) KHK Enzyme Activity Assay for Human KHK-C and Human KHK-A
(§2) The intrinsic potency for inhibition of KHK C or A activity may be measured using an enzymatic assay which measures the production of FIP. Compounds are prepared in DMSO and tested in a 10-point concentration curve, to create 3-fold serial dilutions of the compounds in a 96-well plate ranging from 20 μM to 1.02 nM. Enzyme is prepared in assay buffer [50 mM 4-(2-hydroxyethyl)piperazine-1-ethanesulfonic acid (HEPES), 10 mM potassium chloride, 100 mM magnesium chloride, 2 mM tris(2-carboxyethyl)phosphine (TCEP), 0.01% n-octyl glucoside] and incubated with compounds at RT for 15 min. The reaction is carried out in 100 μL volumes containing substrate concentrations of fructose (250 μM for KHK-C assay and 1.25 mM for KHK-A assay) and ATP (150 μM for both isoforms); which are further incubated at RT for 20 min. The reaction is then halted by the addition of stop buffer; consisting of 0.2% formic acid and 1 μg/ml ^13C6-fructose-6-phosphate (^13C6-F6P) internal standard. Plates are stored in −20° C. until RapidFire MS analysis.
(§3) RapidFire MS Analysis for Quantitation of F1P
(§4) An Agilent 300 RapidFire automated extraction system (Agilent, Santa Clara, Calif.) with three HPLC quaternary pumps is coupled to an Agilent 6495 triple quadrupole mass spectrometer (Agilent Technologies, Santa Clara, Calif.) equipped with an electrospray ionization (ESI) interface source. The RapidFire Mass Spec system is equipped with a reusable RapidFire C18 (type C) solid-phase extraction (SPE) cartridge (G9205 Å).
(§5) Solvent A, used for sample loading and washing, is 6 mM octylamine (Acros Organics 129495000) brought to pH 5.0 using acetic acid. Solvent B, used for sample elution, is 20% water in ACN containing 0.1% formic acid. Samples are sequentially analyzed by aspirating 10 μL onto the collection loop under vacuum directly from multiwell plates. The 10 μL of sample is loaded onto the C18 cartridge and washed using solvent A at a flow rate of 1.25 mL/min for 5000 ms. The retained analytes are then eluted to the mass spectrometer using solvent B at a flow rate of 1.25 mL/min for 5000 ms. The system is re-equilibrated using solvent at flow rate of 1.25 mL/min for 2000 ms.
(§6) The triple quadrupole mass spectrometer is equipped with an ESI source and analytes are monitored using selected reaction monitoring (SRM) in negative mode [M−H]−. F1P is monitored at m/z 259.02/96.9 and ^13C6-fructose-6-phosphate is monitored at m/z 264.99/97. The area ratio values for F1P is calculated using ^13C6-fructose-6-phospate as internal standard.

human KHK-A = human KHK-A (Homo sapiens (Human), UniProt P50053); test: KHK enzyme activity assay, human KHK-A (F1P production, RapidFire MS); format: biochemical; settings: fructose 1.25 mM, ATP 150 μM; average ± SEM; read-out: hKHK-A IC50
Sequence of human KHK-A (P50053 other isoform, or with tags, fused parts or gaps): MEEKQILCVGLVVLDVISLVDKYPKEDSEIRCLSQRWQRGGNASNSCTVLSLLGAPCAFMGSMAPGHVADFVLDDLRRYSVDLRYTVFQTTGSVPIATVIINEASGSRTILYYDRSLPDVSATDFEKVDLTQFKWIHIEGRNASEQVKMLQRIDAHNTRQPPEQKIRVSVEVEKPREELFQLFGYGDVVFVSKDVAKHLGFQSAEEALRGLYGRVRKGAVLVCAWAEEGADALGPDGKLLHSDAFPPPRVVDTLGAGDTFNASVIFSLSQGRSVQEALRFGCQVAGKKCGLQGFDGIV
Protocol: as §1, §2, §3, §4, §5, §6

[2] = Pharmacokinetics in Sprague Dawley rats; format: in vivo; settings: plasma, rat, fasted; for bioavailability: PO 2 or 3 mg/kg vs IV 1 mg/kg
Protocol: (§7) Liquid Chromatography with Tandem Mass Spectrometry (LC-MS/MS) Method for Pharmacokinetic Assays: Samples are extracted using a protein precipitation by adding 180 μL of MeOH:ACN (1:1, v/v) containing an internal standard to 50 μL of plasma. Samples are then diluted with MeOH:Water (1:1, v/v) to get concentrations within standard curve range. Diluted samples are analyzed by LC-MS/MS using a Sciex API 4000 triple quadrupole mass spectrometer (Applied Biosystems/MDS; Foster City, Calif.) equipped with a TurboIonSpray interface, and operated in positive ion mode. The analytes are chromatographically separated using a ECHELON C18 4 um 20×2.1 mm column. LC conditions are Water/1 M ammonium bicarbonate, (2000:10, v/v) (Mobile Phase A), and MeOH/1 M ammonium bicarbonate, (2000:10, v/v) (Mobile Phase B).
Pharmacokinetics in Sprague Dawley Rats
(§8) The compound is administered by a single oral (PO; 2 or 3 mg/kg; volume of 10 mL/kg) or intravenous (IV; 1 mg/kg; volume of 1 mL/kg) dose in vehicle. Blood is collected from each animal at multiple time points between 0 and up to 48 hours post-dosage. The plasma concentrations of Example 1 and Example 2 are determined by a LC-MS/MS method as described above.

Pharmacokinetics in dogs = format: in vivo; settings: beagle, plasma, dog, fed; for bioavailability: PO 2 or 3 mg/kg vs IV 1 mg/kg
Protocol: as §7
as §8, with “2” for “10”, “72” for “48”

Sequence of human KHK-C (P50053 whole entry): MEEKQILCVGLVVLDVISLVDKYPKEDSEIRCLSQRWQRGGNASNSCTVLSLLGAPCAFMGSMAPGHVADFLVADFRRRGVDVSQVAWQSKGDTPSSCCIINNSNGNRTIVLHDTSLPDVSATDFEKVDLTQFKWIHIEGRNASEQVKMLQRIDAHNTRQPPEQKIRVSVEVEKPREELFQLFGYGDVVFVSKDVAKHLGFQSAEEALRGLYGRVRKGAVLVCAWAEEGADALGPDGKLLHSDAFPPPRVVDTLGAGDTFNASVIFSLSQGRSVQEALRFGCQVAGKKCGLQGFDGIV

| Compound | whole liver fat (magnetic resonance imaging-proton density fat fraction) [1] | IC50 (human KHK-C) [µM] | IC50 (human KHK-A) [µM] | bioavailability [2] [%] | clearance ([2]; single IV dose 1 mg/kg) [mL/min/kg] | half-life ([2]; single IV dose 1 mg/kg) [h] | half-life ([2]; single PO dose 2 or 3 mg/kg) [h] | bioavailability (Pharmacokinetics in dogs) [%] | clearance (Pharmacokinetics in dogs; single IV dose 1 mg/kg) [mL/min/kg] | half-life (Pharmacokinetics in dogs; single IV dose 1 mg/kg) [h] | half-life (Pharmacokinetics in dogs; single PO dose 2 or 3 mg/kg) [h] |
| --- | --- | --- | --- | --- | --- | --- | --- | --- | --- | --- | --- |
| C[C@H]1CCN1c1nc(N2C[C@@H]3[C@@H](CC(=O)O)[C@@H]3C2)cc(C(F)(F)F)n1 [PF-06835919] | reduces whole liver fat |  |  |  |  |  |  |  |  |  |  |
| OC[C@H]1CCN1c1nc(-c2cnn(C3CCNCC3)c2)cc(C(F)(F)F)n1 [Example 2, [(2R)-1-[4-[1-(4-Piperidyl)pyrazol-4-yl]-6-(trifluoromethyl)pyrimidin-2-yl]azetidin-2-yl]methanol] |  | 0.134 ± 0.0431 | 0.0982 ± 0.025 | 95 | 56.4 | 4.29 | 5.12 | ~100 | 19.6 | 10.3 | 9.79 |
| C[C@H]1CCN1c1nc(-c2cnn(CC(=O)N3CCNCC3)c2)cc(C(F)(F)F)n1 [Example 1, 2-[4-[2-[(2S)-2-Methylazetidin-1-yl]-6-(trifluoromethyl)pyrimidin-4-yl]pyrazol-1-yl]-1-piperazin-1-yl-ethanone] |  | 0.0207 ± 0.00388 | 0.0242 ± 0.0029 | 83 | 5.86 | 12.8 | 12.9 | 87 | 3.41 | 28 | 36.6 |
| C[C@@H]1CN(C(=O)Cn2cc(-c3cc(C(F)(F)F)nc(N4CC[C@@H]4C)n3)cn2)[C@@H](C)CN1 [Example 32, 1-[(2S,5R)-2,5-Dimethylpiperazin-1-yl]-2-[4-[2-[(2S)-2-methylazetidin-1-yl]-6-(trifluoromethyl)pyrimidin-4-yl]pyrazol-1-yl]ethanone] |  | 0.0133 | 0.0415 |  |  |  |  |  |  |  |  |
